Earlier results, collected in publication PMC6522624, “Comparison of desferrioxamine and NODAGA for the gallium-68 labeling of exendin-4” (EJNMMI Radiopharmacy and Chemistry, 2019).

Legend:
[1] = gallium chelation; ref Šimeček et al. [2011]; Evers et al. [1989]
Text: However, their thermodynamic complex formation stability constant (log K) have been reported to be very similar, with 28.65 for DFO and 29.63 for NOTA (Šimeček et al. [2011]; Evers et al. [1989]).

[2] = in vivo
Text: Insulinomas generally express highly and specifically the glucagon-like peptide-1 receptor (GLP-1R) as they are of β-cell origin (Reubi and Waser [2003]). GLP-1R is a G-protein coupled receptor of the class B receptor family (Zhang et al. [2017]). […] Dipeptidyl peptidase-4 (DPP4) is responsible for the cleavage of the peptide (Baggio and Drucker [2007]).

Molecule | thermodynamic complex formation stability constant (log K) [1] | biological half-life [2]
CC(=O)N(O)CCCCCNC(=O)CCC(=O)N(O)CCCCCNC(=O)CCC(=O)N(O)CCCCCN [DFO, N′-[5-(acetyl-hydroxy-amino)pentyl]-N-[5-[3-(5-aminopentyl-hydroxy-carbamoyl)propanoylamino]pentyl]-N-hydroxy-butane diamide] | 28.65 | 
O=C(O)CN1CCN(CC(=O)O)CCN(CC(=O)O)CC1 [NOTA] | 29.63 | 
GLP-1: endogenous peptide ligand of GLP-1R |  | about 2 min
